ChEMBL document CHEMBL1201862, “PubChem BioAssay data set” (2004)
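Protocol summary: plate cells (96-well), add compound at 5 concentrations, incubate 48 h, interpolate endpoints linearly. GI50 = concentration required for 50% inhibition of growth.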 Calls of active or inactive are those of the source. No stated cut-off is given here; in the data, active = GI50 up to about 1.1 µM and inactive = higher.

How the values were obtained:
Assay in all cases: NCI anticancer screen, dose series, 48 h
NCI/ADR-RES = test system: NCI/ADR-RES
EKVX = test system: EKVX
MDA-N = test system: MDA-N
RPMI-8226 = test system: RPMI-8226
HL-60 = test system: HL-60
ACHN = test system: ACHN
UO-31 = test system: UO-31
HCC 2998 = test system: HCC 2998
RXF 393 = test system: RXF 393
OVCAR-5 = test system: OVCAR-5
M14 = test system: M14
SW-620 = test system: SW-620
UACC-62 = test system: UACC-62
A549 = test system: A549
PC-3 = test system: PC-3
MCF7 = test system: MCF7
K562 = test system: K562
NCI-H460 = test system: NCI-H460
MDA-MB-231 = test system: MDA-MB-231

Measured: GI50

CCOP(=O)(OCC)/C(C#N)=C\c1cccc2ccccc12
inactive: NCI/ADR-RES 52.7 µM | EKVX 31.9 µM | MDA-N 40.6 µM | RPMI-8226 23 µM | HL-60 23 µM | ACHN > 75.9 µM | UO-31 56.9 µM | HCC 2998 > 58.5 µM | RXF 393 31.6 µM | OVCAR-5 > 100 µM | M14 80 µM | SW-620 68.5 µM | UACC-62 35.5 µM | A549 > 100 µM | PC-3 64 µM | MCF7 39.9 µM | K562 31 µM | NCI-H460 > 91.8 µM | MDA-MB-231 40.6 µM

Oc1c2ccccc2c2c3c(cccc13)N=N2 [SP-600125]
inactive: NCI/ADR-RES 22.6 µM | EKVX 20 µM | MDA-N 15 µM | RPMI-8226 18.8 µM | HL-60 42.1 µM | ACHN 6.64 µM | UO-31 10.5 µM | HCC 2998 9.62 µM | RXF 393 20.7 µM | OVCAR-5 24.4 µM | M14 > 100 µM | SW-620 10.9 µM | UACC-62 14.6 µM | A549 14.9 µM | PC-3 23.3 µM | MCF7 49 µM | K562 48.6 µM | NCI-H460 9.86 µM | MDA-MB-231 65.3 µM

CCCNc1ncnc2[nH]ncc12
inactive: NCI/ADR-RES > 100 µM | EKVX > 100 µM | MDA-N > 100 µM | RPMI-8226 > 100 µM | HL-60 > 100 µM | ACHN > 100 µM | UO-31 > 100 µM | HCC 2998 > 100 µM | RXF 393 > 100 µM | OVCAR-5 > 100 µM | M14 > 100 µM | SW-620 > 100 µM | UACC-62 > 100 µM | A549 > 100 µM | PC-3 > 100 µM | MCF7 91.4 µM | K562 > 100 µM | NCI-H460 > 100 µM | MDA-MB-231 > 100 µM

O=C(O)c1nc2cc(Cl)ccc2[nH]c1=O
inactive: NCI/ADR-RES > 100 µM | EKVX > 100 µM | MDA-N > 100 µM | RPMI-8226 > 100 µM | HL-60 > 100 µM | ACHN > 100 µM | UO-31 > 100 µM | HCC 2998 > 100 µM | RXF 393 > 100 µM | OVCAR-5 > 100 µM | M14 > 100 µM | SW-620 > 100 µM | UACC-62 > 100 µM | A549 > 100 µM | PC-3 > 100 µM | MCF7 > 100 µM | K562 > 100 µM | NCI-H460 > 100 µM | MDA-MB-231 > 100 µM

CCOC(=O)CC[C@H](NC(=O)[C@H](N)Cc1ccc(N(CCCl)CCCl)cc1)C(=O)OCC
inactive: NCI/ADR-RES 9.42 µM | EKVX > 42.6 µM | MDA-N 23.2 µM | RPMI-8226 19.6 µM | HL-60 5.3 µM | ACHN 4.76 µM | UO-31 14.1 µM | HCC 2998 18.3 µM | RXF 393 14.2 µM | OVCAR-5 26.4 µM | M14 8.65 µM | SW-620 18 µM | UACC-62 2.68 µM | A549 35.4 µM | PC-3 20.8 µM | MCF7 20.6 µM | K562 22.6 µM | NCI-H460 2.61 µM | MDA-MB-231 29.4 µM

COc1ccc(/N=N/C(=O)NC(CC(C)C)C(N)=O)cc1 (configuration not stated)
inactive: NCI/ADR-RES 55.5 µM | EKVX > 100 µM | MDA-N 30.2 µM | RPMI-8226 14.8 µM | HL-60 > 100 µM | ACHN > 31.1 µM | UO-31 5.41 µM | HCC 2998 > 31 µM | RXF 393 > 31.6 µM | OVCAR-5 > 100 µM | M14 > 28.9 µM | SW-620 > 29.2 µM | UACC-62 6.92 µM | A549 9.14 µM | PC-3 > 100 µM | MCF7 24.3 µM | K562 1.43 µM | NCI-H460 11.6 µM | MDA-MB-231 > 31.6 µM

N#CCCN(CCCCN(CCC#N)C(=O)Nc1ccccc1)C(=O)Nc1ccccc1
inactive: NCI/ADR-RES > 100 µM | EKVX > 100 µM | MDA-N > 100 µM | RPMI-8226 > 100 µM | HL-60 > 100 µM | ACHN > 100 µM | UO-31 > 100 µM | HCC 2998 > 100 µM | RXF 393 24.4 µM | OVCAR-5 > 100 µM | M14 > 100 µM | SW-620 > 100 µM | UACC-62 > 100 µM | A549 > 100 µM | PC-3 > 100 µM | MCF7 > 100 µM | K562 > 100 µM | NCI-H460 > 100 µM | MDA-MB-231 > 100 µM

CC(C)(C)OC(=O)N1CCC2(CC1)C(=O)NCN2c1ccccc1
inactive: NCI/ADR-RES > 100 µM | EKVX > 100 µM | MDA-N > 100 µM | RPMI-8226 > 100 µM | HL-60 92.7 µM | ACHN > 100 µM | UO-31 > 100 µM | HCC 2998 > 100 µM | RXF 393 > 100 µM | OVCAR-5 > 100 µM | M14 > 100 µM | SW-620 > 100 µM | UACC-62 > 100 µM | A549 > 100 µM | PC-3 > 100 µM | MCF7 > 100 µM | K562 77.8 µM | NCI-H460 > 100 µM | MDA-MB-231 > 100 µM
